Data: patent US8394397B2, “Adhesive antineoplastic compositions” (Ed. Geistlich Soehne AG fuer Chemische Industrie, priority 2003, dated 2013)

Columns and labels:
[1] = Taurolidine release from fibrin sealant matrix into PBS supernatant over 7 days; assay type: physicochemical; details: irrespective of initial taurolidine concentration, 37° C.
Method: Different concentrations of taurolidine were homogenously suspended in the two components of the fibrin sealant. The two components were then mixed in wells of a 24-multiwell plate to prepare matrixes with identical total volumes of 400 μl per well containing final taurolidine concentrations of 10, 20, 40 and 80 mg/ml. The resulting thickness of the matrix was 2 mm ±0.4 mm. In addition, matrices with volumes of 400 μl and 800 μl containing 10 mg/ml or 40 mg/ml of taurolidine were prepared to investigate the effect of matrix size on taurolidine release. […] Matrices of identical volume and thickness without taurolidine served as controls. Supernatants of 400 μl phosphate-buffered saline (PBS) were added to each well after solidification. The multiwell plates were incubated at 37° C. The supernatants were pipetted off at 24-hour intervals over a period of 7 days and replaced by identical amounts of fresh PBS.

[2] = Long-term release kinetics of taurolidine from fibrin sealant matrix over 14 days; assay type: physicochemical; details: for percentage of taurolidine released from the matrix: irrespective of loading concentrations
Method: The long-term release kinetics of taurolidine was investigated by homogenously suspending different concentrations of taurolidine in the two components of the fibrin sealant in such a way that final concentrations (mg/ml) of 10, 40 and 80 mg/ml were achieved per 400 μl of fresh PBS at 24-hour intervals over a period of 14 days. The supernatants from the wells containing identical taurolidine concentrations were pooled. The taurolidine concentrations in the supernatants were determined.

[3] = tested on: glial tumor cell lines LN18, LN229, U87MG, and ex vivo cells from a freshly isolated glioblastoma; assay: Crystal violet assay of tumor cells incubated with taurolidine released from the matrices; assay type: cell-based
Method: To determine whether the antineoplastic activity of taurolidine was affected by embedding in the matrix, the glial tumor cell lines LN18, LN229, U87MG, and ex vivo cells from a freshly isolated glioblastoma were incubated with taurolidine released from the matrices at different periods.
The LN18, LN229, and U87MG tumor cells and ex vivo cells from a glioblastoma were seeded in […] plastic cell culture flasks until a cell confluency of 80% was reached. The resulting cell suspensions were centrifuged at 1200 rpm for 5 min and then diluted to yield cell suspensions containing 5×10^4 cells per ml. Aliquots of 200 μl of the cell suspensions were pipetted into the wells of a 96-multiwell plate.
After 12 hours when the cells were adherent the medium was removed and replaced by fresh medium. The cells were incubated for 24 hours and the taurolidine solution released at different time intervals from the matrices loaded with different taurolidine concentrations. Tumor cells incubated with the same volume of supernatant from fibrin sealant matrix without taurolidine were used as negative controls. Identically treated cells to which Fas-ligand at a concentration of 25% was added served as positive controls.
After incubation for 24 hours, the supernatants were removed and 100 μl of crystal violet staining solution (0.5% crystal violet in 19.5% methanol and 80% distilled water) added. The solution was removed after 10 min and residual dye rinsed off with tap water. The plates were then left to air-dry for 12 hours followed by counting in a microplate counter at 540 nm.

[4] = cited from earlier work

percentage of total taurolidine released from the matrix ([1]; within 6 days): 75.2±6.64%
percentage of total taurolidine released from the matrix ([1]; within the first 2 days): 54.7±1.44%
percentage of taurolidine released from the matrix ([2]; after 10 days): 98.93%±0.33
percentage of taurolidine released from the matrix ([2]; after 14 days): 99.99%±0.02
period over which antineoplastically effective amounts of taurolidine were released ([2]; loading concentrations of 25 mg/ml or above): 14 days
taurolidine released on day 14 ([2]; loading concentrations of 50 mg/ml or higher, day 14): over 100 μg/ml
SMILES: O=S1(=O)CCN(CN2CCS(=O)(=O)NC2)CN1 [Taurolidine, Bis-(1,1-dioxoperhydro-1,2,4-thiadiazinyl-4)methane]
proliferation of tumor cell lines and ex vivo glioblastoma cells ([3]; taurolidine released from matrices, 24 hours incubation): inhibited in an concentration-dependent manner
reduction of cell counts ([3]; taurolidine released on day 3, loading concentration 100 mg/ml): at least 60%
effect on tumor cell proliferation ([3]; taurolidine released on day 13 from TFM, initial loading concentration 10 mg/ml): no further effects on tumor cell proliferation
water soluble up to [4]: up to 2%
